Assay results as given in patent US9714244B2, “Substituted pyrido[4,3-d]pyrimidines as Wee-1 inhibitors” (ALMAC DISCOVERY LIMITED, priority 2013, dated 2017).

What was measured:
Assay type in all cases: biochemical
Wee-1 kinase = Wee-1 kinase (Homo sapiens (Human), UniProt P30291); assay: Measurement of Wee-1 kinase activity (ADP-Glo); conditions: read-out: Wee-1 IC50 activity
PLK1 = PLK1 (Homo sapiens (Human), UniProt P53350); assay: SelectScreen Kinase Profiling: PLK1; conditions: 300-350 nM
Source text: (§1) Table 2 below highlights the selectivity of a representative compound of the invention against a panel of 50 kinases (assessed using the Invitrogen SelectScreen® Kinase Profiling Service).

PDGFRB (PDGFR beta) = PDGFRB (PDGFR beta) (Homo sapiens (Human), UniProt P09619); assay: SelectScreen Kinase Profiling: PDGFRB; conditions: 300-350 nM
PDGFRB (PDGFR beta), sequence (P09619 33-1106): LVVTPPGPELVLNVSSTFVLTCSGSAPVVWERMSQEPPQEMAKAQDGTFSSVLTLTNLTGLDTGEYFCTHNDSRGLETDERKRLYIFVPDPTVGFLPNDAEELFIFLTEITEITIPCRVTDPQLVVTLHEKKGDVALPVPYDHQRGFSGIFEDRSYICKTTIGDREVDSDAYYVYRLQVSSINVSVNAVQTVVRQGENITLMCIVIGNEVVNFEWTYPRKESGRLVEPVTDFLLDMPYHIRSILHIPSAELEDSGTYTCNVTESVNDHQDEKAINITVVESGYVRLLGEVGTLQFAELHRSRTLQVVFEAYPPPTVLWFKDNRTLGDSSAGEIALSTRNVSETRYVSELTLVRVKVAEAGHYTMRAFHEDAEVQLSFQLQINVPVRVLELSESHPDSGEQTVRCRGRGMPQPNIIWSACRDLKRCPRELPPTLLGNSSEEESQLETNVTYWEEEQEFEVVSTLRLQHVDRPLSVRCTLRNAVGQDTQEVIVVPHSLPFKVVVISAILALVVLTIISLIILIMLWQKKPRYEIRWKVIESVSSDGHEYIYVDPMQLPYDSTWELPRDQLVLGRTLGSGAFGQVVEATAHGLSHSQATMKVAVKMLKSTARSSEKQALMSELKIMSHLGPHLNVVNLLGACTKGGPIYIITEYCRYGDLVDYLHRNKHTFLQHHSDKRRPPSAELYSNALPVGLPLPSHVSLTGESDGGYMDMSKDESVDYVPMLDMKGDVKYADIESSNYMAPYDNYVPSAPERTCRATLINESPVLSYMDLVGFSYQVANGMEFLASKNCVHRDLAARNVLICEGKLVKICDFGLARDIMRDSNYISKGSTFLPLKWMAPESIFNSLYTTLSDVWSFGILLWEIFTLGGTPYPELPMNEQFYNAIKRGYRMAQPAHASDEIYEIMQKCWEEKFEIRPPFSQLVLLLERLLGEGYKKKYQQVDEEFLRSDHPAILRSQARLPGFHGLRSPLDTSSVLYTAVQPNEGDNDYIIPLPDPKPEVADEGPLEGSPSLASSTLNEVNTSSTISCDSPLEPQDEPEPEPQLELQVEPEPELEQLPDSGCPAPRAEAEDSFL

AMPK A1/B1/G1 = AMPK A1/B1/G1 (Homo sapiens (Human), UniProt Q13131); assay: SelectScreen Kinase Profiling: AMPK; conditions: 300-350 nM
AMPK A1/B1/G1, sequence (Q13131 whole entry): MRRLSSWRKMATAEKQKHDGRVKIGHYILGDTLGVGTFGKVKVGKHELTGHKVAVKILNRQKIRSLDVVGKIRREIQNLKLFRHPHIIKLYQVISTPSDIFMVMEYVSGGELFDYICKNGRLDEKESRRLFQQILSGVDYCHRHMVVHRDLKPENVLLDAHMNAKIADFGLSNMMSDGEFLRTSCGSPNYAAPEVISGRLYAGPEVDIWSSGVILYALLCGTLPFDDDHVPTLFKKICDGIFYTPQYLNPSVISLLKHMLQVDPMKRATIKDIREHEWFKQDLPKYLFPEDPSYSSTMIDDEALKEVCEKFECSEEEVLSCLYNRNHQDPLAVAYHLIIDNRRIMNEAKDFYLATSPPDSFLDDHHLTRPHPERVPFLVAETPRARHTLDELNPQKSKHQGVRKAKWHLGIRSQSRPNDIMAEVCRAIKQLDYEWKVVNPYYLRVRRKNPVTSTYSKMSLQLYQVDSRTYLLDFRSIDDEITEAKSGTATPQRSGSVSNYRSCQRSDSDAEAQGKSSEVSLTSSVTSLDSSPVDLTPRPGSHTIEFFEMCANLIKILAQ
AMPK A1/B1/G1, sequence (Q9Y478 whole entry partner): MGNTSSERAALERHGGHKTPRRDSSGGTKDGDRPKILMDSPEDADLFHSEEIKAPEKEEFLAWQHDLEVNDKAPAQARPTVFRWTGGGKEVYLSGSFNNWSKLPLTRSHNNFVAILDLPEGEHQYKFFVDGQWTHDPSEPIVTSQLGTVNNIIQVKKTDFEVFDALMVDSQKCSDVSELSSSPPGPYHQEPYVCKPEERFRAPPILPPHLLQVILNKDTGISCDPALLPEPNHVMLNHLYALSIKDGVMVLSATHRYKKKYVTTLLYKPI
AMPK A1/B1/G1, sequence (P54619 whole entry partner): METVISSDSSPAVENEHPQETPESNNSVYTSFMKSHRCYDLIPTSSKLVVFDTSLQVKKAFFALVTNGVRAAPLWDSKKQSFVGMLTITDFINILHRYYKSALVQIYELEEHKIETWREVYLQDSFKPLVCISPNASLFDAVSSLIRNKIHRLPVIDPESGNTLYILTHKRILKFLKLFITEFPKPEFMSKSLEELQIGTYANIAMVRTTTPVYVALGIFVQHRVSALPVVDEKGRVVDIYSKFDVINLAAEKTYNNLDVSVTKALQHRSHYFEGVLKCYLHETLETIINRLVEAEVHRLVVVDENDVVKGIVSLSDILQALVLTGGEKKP
Source text: as §1

Src = Src (Homo sapiens (Human), UniProt P12931); assay: SelectScreen Kinase Profiling: SRC; conditions: 300-350 nM
EGFR (ErbB1) = EGFR (ErbB1) (Homo sapiens (Human), UniProt P00533); assay: SelectScreen Kinase Profiling: EGFR; conditions: 300-350 nM
PAK4 = PAK4 (Homo sapiens (Human), UniProt O96013); assay: SelectScreen Kinase Profiling: PAK4; conditions: 300-350 nM
Source text: as §1

KDR (VEGFR2) = KDR (VEGFR2) (Homo sapiens (Human), UniProt P35968); assay: SelectScreen Kinase Profiling: KDR; conditions: 300-350 nM
Source text: as §1

MET (cMet) = MET (cMet) (Homo sapiens (Human), UniProt P08581); assay: SelectScreen Kinase Profiling: MET; conditions: 300-350 nM
Source text: as §1

IKBKB (IKK beta) = IKBKB (IKK beta) (Homo sapiens (Human), UniProt O14920); assay: SelectScreen Kinase Profiling: IKBKB; conditions: 300-350 nM
Source text: as §1

CHEK1 (CHK1) = CHEK1 (CHK1) (Homo sapiens (Human), UniProt O14757); assay: SelectScreen Kinase Profiling: CHEK1; conditions: 300-350 nM
Source text: as §1

MAPK8 (JNK1) = MAPK8 (JNK1) (Homo sapiens (Human), UniProt P45983); assay: SelectScreen Kinase Profiling: MAPK8; conditions: 300-350 nM
Source text: as §1

EPHA2 = EPHA2 (Homo sapiens (Human), UniProt P29317); assay: SelectScreen Kinase Profiling: EPHA2; conditions: 300-350 nM
Source text: as §1

MAPK1 (ERK2) = MAPK1 (ERK2) (Homo sapiens (Human), UniProt P28482); assay: SelectScreen Kinase Profiling: MAPK1; conditions: 300-350 nM
MAPK1 (ERK2), sequence (P28482 whole entry): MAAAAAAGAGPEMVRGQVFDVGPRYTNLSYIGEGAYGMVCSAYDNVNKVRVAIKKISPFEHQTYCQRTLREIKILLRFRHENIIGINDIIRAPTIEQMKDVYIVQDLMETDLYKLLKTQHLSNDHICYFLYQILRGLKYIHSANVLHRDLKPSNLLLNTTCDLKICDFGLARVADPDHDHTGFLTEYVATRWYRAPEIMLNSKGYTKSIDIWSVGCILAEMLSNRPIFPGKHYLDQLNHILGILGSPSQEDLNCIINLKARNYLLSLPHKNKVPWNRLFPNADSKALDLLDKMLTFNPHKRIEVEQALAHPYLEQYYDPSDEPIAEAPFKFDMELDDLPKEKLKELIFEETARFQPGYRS
Source text: as §1

FGFR1 = FGFR1 (Homo sapiens (Human), UniProt P11362); assay: SelectScreen Kinase Profiling: FGFR1; conditions: 300-350 nM
Source text: as §1

SYK = SYK (Homo sapiens (Human), UniProt P43405); assay: SelectScreen Kinase Profiling: SYK; conditions: 300-350 nM
Source text: as §1

TEK (Tie2) = TEK (Tie2) (Homo sapiens (Human), UniProt Q02763); assay: SelectScreen Kinase Profiling: TEK; conditions: 300-350 nM
Source text: as §1

LCK = LCK (Homo sapiens (Human), UniProt P06239); assay: SelectScreen Kinase Profiling: LCK; conditions: 300-350 nM
Source text: as §1

BTK = BTK (Homo sapiens (Human), UniProt Q06187); assay: SelectScreen Kinase Profiling: BTK; conditions: 300-350 nM
Source text: as §1

RPS6KB1 (p70S6K) = RPS6KB1 (p70S6K) (Homo sapiens (Human), UniProt P23443); assay: SelectScreen Kinase Profiling: RPS6KB1; conditions: 300-350 nM
RPS6KB1 (p70S6K), sequence (P23443 whole entry): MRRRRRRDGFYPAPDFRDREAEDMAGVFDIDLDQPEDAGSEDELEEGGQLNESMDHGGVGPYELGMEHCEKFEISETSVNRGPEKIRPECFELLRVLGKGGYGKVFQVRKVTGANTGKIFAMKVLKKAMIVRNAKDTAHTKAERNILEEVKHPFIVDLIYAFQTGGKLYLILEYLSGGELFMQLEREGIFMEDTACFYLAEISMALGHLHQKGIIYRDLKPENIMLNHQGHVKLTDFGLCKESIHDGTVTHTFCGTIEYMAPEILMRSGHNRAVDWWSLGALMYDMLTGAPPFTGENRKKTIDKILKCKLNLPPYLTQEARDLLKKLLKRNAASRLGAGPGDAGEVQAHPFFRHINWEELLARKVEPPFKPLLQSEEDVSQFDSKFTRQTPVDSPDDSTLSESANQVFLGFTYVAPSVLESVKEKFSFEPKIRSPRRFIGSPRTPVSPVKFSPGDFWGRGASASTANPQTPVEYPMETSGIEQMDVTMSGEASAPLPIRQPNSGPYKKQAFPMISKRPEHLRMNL
Source text: as §1

JAK3 = JAK3 (Homo sapiens (Human), UniProt P52333); assay: SelectScreen Kinase Profiling: JAK3; conditions: 300-350 nM
JAK3, sequence (P52333 whole entry): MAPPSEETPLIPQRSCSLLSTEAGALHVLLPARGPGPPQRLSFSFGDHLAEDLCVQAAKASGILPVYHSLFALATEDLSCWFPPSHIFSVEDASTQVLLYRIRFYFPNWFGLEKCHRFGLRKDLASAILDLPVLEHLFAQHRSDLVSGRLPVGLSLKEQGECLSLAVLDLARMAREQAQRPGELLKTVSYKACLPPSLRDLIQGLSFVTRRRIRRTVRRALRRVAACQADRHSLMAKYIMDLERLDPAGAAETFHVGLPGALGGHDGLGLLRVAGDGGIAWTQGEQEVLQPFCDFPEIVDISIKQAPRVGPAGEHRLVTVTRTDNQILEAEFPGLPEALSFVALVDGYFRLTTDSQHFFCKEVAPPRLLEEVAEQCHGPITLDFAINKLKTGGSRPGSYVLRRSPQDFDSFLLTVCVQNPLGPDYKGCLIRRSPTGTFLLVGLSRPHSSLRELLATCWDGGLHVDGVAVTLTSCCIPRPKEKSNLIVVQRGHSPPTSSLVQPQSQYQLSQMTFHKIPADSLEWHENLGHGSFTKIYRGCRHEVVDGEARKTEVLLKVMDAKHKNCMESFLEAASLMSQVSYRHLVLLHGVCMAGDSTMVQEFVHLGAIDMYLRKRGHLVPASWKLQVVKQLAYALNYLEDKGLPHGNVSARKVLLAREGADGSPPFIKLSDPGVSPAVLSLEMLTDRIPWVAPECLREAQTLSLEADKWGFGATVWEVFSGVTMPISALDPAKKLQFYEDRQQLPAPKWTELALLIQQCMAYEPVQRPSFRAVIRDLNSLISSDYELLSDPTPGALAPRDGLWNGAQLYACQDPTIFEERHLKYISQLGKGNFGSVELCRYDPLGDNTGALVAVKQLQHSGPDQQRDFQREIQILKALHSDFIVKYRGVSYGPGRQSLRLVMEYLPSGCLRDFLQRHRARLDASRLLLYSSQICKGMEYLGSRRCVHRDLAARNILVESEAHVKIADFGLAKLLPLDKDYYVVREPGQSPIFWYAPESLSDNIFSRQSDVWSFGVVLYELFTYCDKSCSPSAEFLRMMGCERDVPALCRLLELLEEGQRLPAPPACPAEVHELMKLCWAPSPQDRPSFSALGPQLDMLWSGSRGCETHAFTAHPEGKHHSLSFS
Source text: as §1

MARK2 = MARK2 (Homo sapiens (Human), UniProt Q7KZI7); assay: SelectScreen Kinase Profiling: MARK2; conditions: 300-350 nM
Source text: as §1

IGF1R = IGF1R (Homo sapiens (Human), UniProt P08069); assay: SelectScreen Kinase Profiling: IGF1R; conditions: 300-350 nM
Source text: as §1

FRAP1 (mTOR) = FRAP1 (mTOR) (Homo sapiens (Human), UniProt P42345); assay: SelectScreen Kinase Profiling: FRAP1; conditions: 300-350 nM
Source text: as §1

NEK1 = NEK1 (Homo sapiens (Human), UniProt Q96PY6); assay: SelectScreen Kinase Profiling: NEK1; conditions: 300-350 nM
Source text: as §1

PHKG2 = PHKG2 (Homo sapiens (Human), UniProt P15735); assay: SelectScreen Kinase Profiling: PHKG2; conditions: 300-350 nM
Source text: as §1

PRKACA (PKA) = PRKACA (PKA) (Homo sapiens (Human), UniProt P17612); assay: SelectScreen Kinase Profiling: PRKACA; conditions: 300-350 nM
Source text: as §1

INSR = INSR (Homo sapiens (Human), UniProt P06213); assay: SelectScreen Kinase Profiling: INSR; conditions: 300-350 nM
Source text: as §1

AURKA (Aurora A) = AURKA (Aurora A) (Homo sapiens (Human), UniProt O14965); assay: SelectScreen Kinase Profiling: AURKA; conditions: 300-350 nM
Source text: as §1

CDK1/cyclin B = CDK1/cyclin B (Homo sapiens (Human), UniProt P06493); assay: SelectScreen Kinase Profiling: CDK1/cyclin B; conditions: 300-350 nM
CDK1/cyclin B, sequence (P06493 whole entry): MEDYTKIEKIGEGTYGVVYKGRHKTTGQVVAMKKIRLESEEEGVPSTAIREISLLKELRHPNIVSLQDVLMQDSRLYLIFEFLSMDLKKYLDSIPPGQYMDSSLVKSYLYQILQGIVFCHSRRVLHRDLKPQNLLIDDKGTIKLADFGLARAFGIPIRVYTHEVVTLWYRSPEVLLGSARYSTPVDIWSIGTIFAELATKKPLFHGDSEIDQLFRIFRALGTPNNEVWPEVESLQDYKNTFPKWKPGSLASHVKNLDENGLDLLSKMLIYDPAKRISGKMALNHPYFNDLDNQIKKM
CDK1/cyclin B, sequence (P14635 whole entry partner): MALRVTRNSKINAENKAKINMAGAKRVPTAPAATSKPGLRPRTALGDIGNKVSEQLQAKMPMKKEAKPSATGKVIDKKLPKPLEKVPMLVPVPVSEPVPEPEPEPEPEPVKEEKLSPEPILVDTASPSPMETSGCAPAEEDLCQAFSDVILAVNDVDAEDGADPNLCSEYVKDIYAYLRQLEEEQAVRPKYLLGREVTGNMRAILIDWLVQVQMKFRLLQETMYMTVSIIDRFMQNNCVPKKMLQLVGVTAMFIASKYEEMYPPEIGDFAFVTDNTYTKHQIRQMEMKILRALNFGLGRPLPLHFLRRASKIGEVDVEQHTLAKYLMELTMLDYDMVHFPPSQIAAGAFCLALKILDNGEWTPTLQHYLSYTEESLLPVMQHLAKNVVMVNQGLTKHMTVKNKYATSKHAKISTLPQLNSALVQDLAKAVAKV
Source text: as §1

O=c1c2cnc(Nc3ccc(N4CCNCC4)cc3)nc2ccn1-c1c(Cl)cccc1Cl [Example 1, 6-(2,6-Dichlorophenyl)-2-((4-(piperazin-1-yl)phenyl)amino)pyrido[4,3-d]pyrimidin-5(6H)-one]
IC50 (Wee-1 kinase): 10 to 200 nM | Inhibition PLK1 (PLK1): − (Inhibition <75% @ 300-350 nM) | Inhibition PDGFRB (PDGFR beta) (PDGFRB (PDGFR beta)): − (Inhibition <75% @ 300-350 nM) | Inhibition AMPK A1/B1/G1 (AMPK A1/B1/G1): − (Inhibition <75% @ 300-350 nM) | Inhibition SRC (Src): − (Inhibition <75% @ 300-350 nM) | Inhibition EGFR (ErbB1) (EGFR (ErbB1)): − (Inhibition <75% @ 300-350 nM) | Inhibition PAK4 (PAK4): − (Inhibition <75% @ 300-350 nM) | Inhibition KDR (VEGFR2) (KDR (VEGFR2)): − (Inhibition <75% @ 300-350 nM) | Inhibition MET (cMet) (MET (cMet)): − (Inhibition <75% @ 300-350 nM) | Inhibition IKBKB (IKK beta) (IKBKB (IKK beta)): − (Inhibition <75% @ 300-350 nM) | Inhibition CHEK1 (CHK1) (CHEK1 (CHK1)): − (Inhibition <75% @ 300-350 nM) | Inhibition MAPK8 (JNK1) (MAPK8 (JNK1)): − (Inhibition <75% @ 300-350 nM) | Inhibition EPHA2 (EPHA2): − (Inhibition <75% @ 300-350 nM) | Inhibition MAPK1 (ERK2) (MAPK1 (ERK2)): − (Inhibition <75% @ 300-350 nM) | Inhibition FGFR1 (FGFR1): − (Inhibition <75% @ 300-350 nM) | Inhibition SYK (SYK): − (Inhibition <75% @ 300-350 nM) | Inhibition TEK (Tie2) (TEK (Tie2)): − (Inhibition <75% @ 300-350 nM) | Inhibition LCK (LCK): − (Inhibition <75% @ 300-350 nM) | Inhibition BTK (BTK): − (Inhibition <75% @ 300-350 nM) | Inhibition RPS6KB1 (p70S6K) (RPS6KB1 (p70S6K)): − (Inhibition <75% @ 300-350 nM) | Inhibition JAK3 (JAK3): − (Inhibition <75% @ 300-350 nM) | Inhibition MARK2 (MARK2): − (Inhibition <75% @ 300-350 nM) | Inhibition IGF1R (IGF1R): − (Inhibition <75% @ 300-350 nM) | Inhibition FRAP1 (mTOR) (FRAP1 (mTOR)): − (Inhibition <75% @ 300-350 nM) | Inhibition NEK1 (NEK1): − (Inhibition <75% @ 300-350 nM) | Inhibition PHKG2 (PHKG2): − (Inhibition <75% @ 300-350 nM) | Inhibition PRKACA (PKA) (PRKACA (PKA)): − (Inhibition <75% @ 300-350 nM) | Inhibition INSR (INSR): − (Inhibition <75% @ 300-350 nM) | Inhibition AURKA (Aurora A) (AURKA (Aurora A)): − (Inhibition <75% @ 300-350 nM) | Inhibition CDK1/cyclin B (CDK1/cyclin B): − (Inhibition <75% @ 300-350 nM)
